Test results reported in patent publication US20240287172A1, “PROTEIN BINDERS TO IRHOM2 EPITOPES” (SCIRHOM GMBH, priority 2019, published 2024).

Test system: PMA-induced release of endogenous HB-EGF from PBMCs from healthy donors
Experiment: ELISA-based HB-EGF release assay, PMA-induced, PBMCs from healthy donors
Assay type: cell-based
Conditions: Homo sapiens, PBMC; PMA 25 ng/ml, 6 hours; recombinant murine antibodies and IgG at 1 μg/ml; Batimastat at 10 μM
Description: In brief, on day 1, Nunc black MaxiSorp® 96-well plates (Thermo Fisher Scientific, USA) were coated overnight with 100 μl per well of mouse anti-human HB-EGF capture antibody (provided as part of the DuoSet ELISA kit) at 4 μg/ml TBS at 4° C. On day 2, the capture antibody solution was removed and MaxiSorp® plates were blocked with 300 μl per well of TBS, 1% BSA at room temperature for 3 hours. Meanwhile, 80,000 PBMC from healthy donors (STEMCELL Technologies, Canada) cells in 80 μl of normal growth medium were seeded in each well of Greiner CELLSTAR V-bottom 96-well plates (Thermo Fisher Scientific, USA) and pre-incubated with 20 μl per well of standard growth medium supplemented with Batimastat (BB94, Abcam, UK) at 50 μM as positive control (for a final concentration of 10 μM in the resulting 100 μl sample volume), mouse IgG antibody (Thermo Fisher Scientific, USA) at 5 μg/ml as isotype control (for a final concentration of 1 μg/ml in the resulting 100 μl sample volume) or antibodies of the invention at 5 μg/ml (for a final concentration of 1 μg/ml in the resulting 100 μl sample volume) at 37° C., 5% CO2 for 30 minutes. […] Using an infinite M1000 (Tecan Group, Switzerland) microplate reader, the fluorescence of each well was collected at an excitation wavelength of 435 nm and an emission wavelength of 555 nm.

CNC(=O)[C@H](Cc1ccccc1)NC(=O)[C@H](CC(C)C)[C@H](CSc1cccs1)C(=O)NO [Batimastat]
inhibition at 10 µM: 94.9%
